Experiment [1] concerns Hh pathway (Gli-responsive firefly luciferase reporter in Shh-LIGHT2 cells). The experiment can be described thus: Shh-LIGHT2 assay for Hh pathway activity. The following applies: 10% Shh-conditioned medium, 24 hours, firefly/Renilla luciferase ratio. The experiment is classed as cell-based. As for the experimental part: Shh-N-conditioned medium was prepared as described by Chen et al., Proc. Natl. Acad. Sci. U.S.A. 99, 14071 (2002). Shh-LIGHT2 cells [J. Taipale et al., Nature 406, 1005 (2000)], an NIH-3T3-based cell line containing a stably integrated Gli-responsive firefly luciferase reporter and a constitutive thymidine kinase promoter-driven Renilla luciferase expression construct (pRLTK, Promega), were cultured in DMEM containing 10% calf serum. 100 U/mL penicillin, and 0.1 mg/mL streptomycin. The cells were seeded into 96-well plates at a density of 30,000 cells/well, and the following day they were treated with individual compounds or DMSO in DMEM containing 0.5% calf serum, 10% Shh-conditioned medium, and the antibiotics described above. After being cultured for another 24 hours, the cells were lysed and their firefly and Renilla luciferase activities were determined using, a dual luciferase reporter kit (Promega) and a microplate luminometer (Veritas). Average values representing the firefly luciferase/Renilla luciferase ratio from triplicate samples were used to construct dose response profiles for each compound. Dose-response data from three separate experiments were independently curve-fitted with a variable slope, sigmoidal dose-response algorithm using Prism software, and the resulting IC50 values were used to generate an average IC50 for each compound.

For a further experiment, the system named is Xenopus melanophores. Description: Melanosome aggregation assay. The experiment is classed as cell-based. Particulars: for melanosome aggregation: melatonin-induced aggregation. The source says:
Another cytoplasmic dynein 1-dependent process is the aggregation of melanin-containing vesicles in pigment cells, the mechanism by which certain organisms adapt their coloration in response to environmental cues. For example, cytoplasmic dynein 1 transports melanosomes toward the center of Xenopus melanophores stimulated with the small-molecule melatonin, counterbalancing the kinesin-2- and myosin-V-driven dispersal of these pigment granules toward the cell periphery in response to melanocyte-stimulating hormone (MSH). To determine if melanosome trafficking is sensitive to the ciliobrevins, we cultured Xenopus melanophores with MSH to uniformly disperse their melanosomes and then treated them with melatonin and various concentrations of test compounds.
Immortalized Xenopus melanophores were cultured in 0.7×L15 medium supplemented with 10% fetal bovine serum, 30 mg/L L-glutamine, and 5 mg/L insulin. The cell were cultured on poly-D-lysine-coated coverslips in 12-well plates for 12 to 24 hours prior to the melanosome aggregation assay. On the day of the experiment, the melanophores were cultured in serum-free medium for 30 minutes, stimulated with 100 nM melanocyte-stimulating hormone (MSH) to uniformly disperse the melanosomes, and then incubated with medium containing individual compounds or DMSO for 10 minutes. Melanosome aggregation was then induced by treating the cells with 10 nM melatonin in the presence of the test compound. The melanophores were either imaged immediately by time-lapse microscopy or fixed after 30 minutes with 0.7×PBS containing 4% paraformaldehyde.
The cells were then washed several times with medium containing melatonin alone and imaged.

Experiment [2] deals with T1, cytoplasmic dynein purified from bovine brain (Bos taurus, UniProt A0A3Q1NEU9).
T1 construct: Cytoplasmic dynein was purified from bovine brain tissue; from tissue; host or cells: bovine brain
T1 sequence (A0A3Q1NEU9 1-4657): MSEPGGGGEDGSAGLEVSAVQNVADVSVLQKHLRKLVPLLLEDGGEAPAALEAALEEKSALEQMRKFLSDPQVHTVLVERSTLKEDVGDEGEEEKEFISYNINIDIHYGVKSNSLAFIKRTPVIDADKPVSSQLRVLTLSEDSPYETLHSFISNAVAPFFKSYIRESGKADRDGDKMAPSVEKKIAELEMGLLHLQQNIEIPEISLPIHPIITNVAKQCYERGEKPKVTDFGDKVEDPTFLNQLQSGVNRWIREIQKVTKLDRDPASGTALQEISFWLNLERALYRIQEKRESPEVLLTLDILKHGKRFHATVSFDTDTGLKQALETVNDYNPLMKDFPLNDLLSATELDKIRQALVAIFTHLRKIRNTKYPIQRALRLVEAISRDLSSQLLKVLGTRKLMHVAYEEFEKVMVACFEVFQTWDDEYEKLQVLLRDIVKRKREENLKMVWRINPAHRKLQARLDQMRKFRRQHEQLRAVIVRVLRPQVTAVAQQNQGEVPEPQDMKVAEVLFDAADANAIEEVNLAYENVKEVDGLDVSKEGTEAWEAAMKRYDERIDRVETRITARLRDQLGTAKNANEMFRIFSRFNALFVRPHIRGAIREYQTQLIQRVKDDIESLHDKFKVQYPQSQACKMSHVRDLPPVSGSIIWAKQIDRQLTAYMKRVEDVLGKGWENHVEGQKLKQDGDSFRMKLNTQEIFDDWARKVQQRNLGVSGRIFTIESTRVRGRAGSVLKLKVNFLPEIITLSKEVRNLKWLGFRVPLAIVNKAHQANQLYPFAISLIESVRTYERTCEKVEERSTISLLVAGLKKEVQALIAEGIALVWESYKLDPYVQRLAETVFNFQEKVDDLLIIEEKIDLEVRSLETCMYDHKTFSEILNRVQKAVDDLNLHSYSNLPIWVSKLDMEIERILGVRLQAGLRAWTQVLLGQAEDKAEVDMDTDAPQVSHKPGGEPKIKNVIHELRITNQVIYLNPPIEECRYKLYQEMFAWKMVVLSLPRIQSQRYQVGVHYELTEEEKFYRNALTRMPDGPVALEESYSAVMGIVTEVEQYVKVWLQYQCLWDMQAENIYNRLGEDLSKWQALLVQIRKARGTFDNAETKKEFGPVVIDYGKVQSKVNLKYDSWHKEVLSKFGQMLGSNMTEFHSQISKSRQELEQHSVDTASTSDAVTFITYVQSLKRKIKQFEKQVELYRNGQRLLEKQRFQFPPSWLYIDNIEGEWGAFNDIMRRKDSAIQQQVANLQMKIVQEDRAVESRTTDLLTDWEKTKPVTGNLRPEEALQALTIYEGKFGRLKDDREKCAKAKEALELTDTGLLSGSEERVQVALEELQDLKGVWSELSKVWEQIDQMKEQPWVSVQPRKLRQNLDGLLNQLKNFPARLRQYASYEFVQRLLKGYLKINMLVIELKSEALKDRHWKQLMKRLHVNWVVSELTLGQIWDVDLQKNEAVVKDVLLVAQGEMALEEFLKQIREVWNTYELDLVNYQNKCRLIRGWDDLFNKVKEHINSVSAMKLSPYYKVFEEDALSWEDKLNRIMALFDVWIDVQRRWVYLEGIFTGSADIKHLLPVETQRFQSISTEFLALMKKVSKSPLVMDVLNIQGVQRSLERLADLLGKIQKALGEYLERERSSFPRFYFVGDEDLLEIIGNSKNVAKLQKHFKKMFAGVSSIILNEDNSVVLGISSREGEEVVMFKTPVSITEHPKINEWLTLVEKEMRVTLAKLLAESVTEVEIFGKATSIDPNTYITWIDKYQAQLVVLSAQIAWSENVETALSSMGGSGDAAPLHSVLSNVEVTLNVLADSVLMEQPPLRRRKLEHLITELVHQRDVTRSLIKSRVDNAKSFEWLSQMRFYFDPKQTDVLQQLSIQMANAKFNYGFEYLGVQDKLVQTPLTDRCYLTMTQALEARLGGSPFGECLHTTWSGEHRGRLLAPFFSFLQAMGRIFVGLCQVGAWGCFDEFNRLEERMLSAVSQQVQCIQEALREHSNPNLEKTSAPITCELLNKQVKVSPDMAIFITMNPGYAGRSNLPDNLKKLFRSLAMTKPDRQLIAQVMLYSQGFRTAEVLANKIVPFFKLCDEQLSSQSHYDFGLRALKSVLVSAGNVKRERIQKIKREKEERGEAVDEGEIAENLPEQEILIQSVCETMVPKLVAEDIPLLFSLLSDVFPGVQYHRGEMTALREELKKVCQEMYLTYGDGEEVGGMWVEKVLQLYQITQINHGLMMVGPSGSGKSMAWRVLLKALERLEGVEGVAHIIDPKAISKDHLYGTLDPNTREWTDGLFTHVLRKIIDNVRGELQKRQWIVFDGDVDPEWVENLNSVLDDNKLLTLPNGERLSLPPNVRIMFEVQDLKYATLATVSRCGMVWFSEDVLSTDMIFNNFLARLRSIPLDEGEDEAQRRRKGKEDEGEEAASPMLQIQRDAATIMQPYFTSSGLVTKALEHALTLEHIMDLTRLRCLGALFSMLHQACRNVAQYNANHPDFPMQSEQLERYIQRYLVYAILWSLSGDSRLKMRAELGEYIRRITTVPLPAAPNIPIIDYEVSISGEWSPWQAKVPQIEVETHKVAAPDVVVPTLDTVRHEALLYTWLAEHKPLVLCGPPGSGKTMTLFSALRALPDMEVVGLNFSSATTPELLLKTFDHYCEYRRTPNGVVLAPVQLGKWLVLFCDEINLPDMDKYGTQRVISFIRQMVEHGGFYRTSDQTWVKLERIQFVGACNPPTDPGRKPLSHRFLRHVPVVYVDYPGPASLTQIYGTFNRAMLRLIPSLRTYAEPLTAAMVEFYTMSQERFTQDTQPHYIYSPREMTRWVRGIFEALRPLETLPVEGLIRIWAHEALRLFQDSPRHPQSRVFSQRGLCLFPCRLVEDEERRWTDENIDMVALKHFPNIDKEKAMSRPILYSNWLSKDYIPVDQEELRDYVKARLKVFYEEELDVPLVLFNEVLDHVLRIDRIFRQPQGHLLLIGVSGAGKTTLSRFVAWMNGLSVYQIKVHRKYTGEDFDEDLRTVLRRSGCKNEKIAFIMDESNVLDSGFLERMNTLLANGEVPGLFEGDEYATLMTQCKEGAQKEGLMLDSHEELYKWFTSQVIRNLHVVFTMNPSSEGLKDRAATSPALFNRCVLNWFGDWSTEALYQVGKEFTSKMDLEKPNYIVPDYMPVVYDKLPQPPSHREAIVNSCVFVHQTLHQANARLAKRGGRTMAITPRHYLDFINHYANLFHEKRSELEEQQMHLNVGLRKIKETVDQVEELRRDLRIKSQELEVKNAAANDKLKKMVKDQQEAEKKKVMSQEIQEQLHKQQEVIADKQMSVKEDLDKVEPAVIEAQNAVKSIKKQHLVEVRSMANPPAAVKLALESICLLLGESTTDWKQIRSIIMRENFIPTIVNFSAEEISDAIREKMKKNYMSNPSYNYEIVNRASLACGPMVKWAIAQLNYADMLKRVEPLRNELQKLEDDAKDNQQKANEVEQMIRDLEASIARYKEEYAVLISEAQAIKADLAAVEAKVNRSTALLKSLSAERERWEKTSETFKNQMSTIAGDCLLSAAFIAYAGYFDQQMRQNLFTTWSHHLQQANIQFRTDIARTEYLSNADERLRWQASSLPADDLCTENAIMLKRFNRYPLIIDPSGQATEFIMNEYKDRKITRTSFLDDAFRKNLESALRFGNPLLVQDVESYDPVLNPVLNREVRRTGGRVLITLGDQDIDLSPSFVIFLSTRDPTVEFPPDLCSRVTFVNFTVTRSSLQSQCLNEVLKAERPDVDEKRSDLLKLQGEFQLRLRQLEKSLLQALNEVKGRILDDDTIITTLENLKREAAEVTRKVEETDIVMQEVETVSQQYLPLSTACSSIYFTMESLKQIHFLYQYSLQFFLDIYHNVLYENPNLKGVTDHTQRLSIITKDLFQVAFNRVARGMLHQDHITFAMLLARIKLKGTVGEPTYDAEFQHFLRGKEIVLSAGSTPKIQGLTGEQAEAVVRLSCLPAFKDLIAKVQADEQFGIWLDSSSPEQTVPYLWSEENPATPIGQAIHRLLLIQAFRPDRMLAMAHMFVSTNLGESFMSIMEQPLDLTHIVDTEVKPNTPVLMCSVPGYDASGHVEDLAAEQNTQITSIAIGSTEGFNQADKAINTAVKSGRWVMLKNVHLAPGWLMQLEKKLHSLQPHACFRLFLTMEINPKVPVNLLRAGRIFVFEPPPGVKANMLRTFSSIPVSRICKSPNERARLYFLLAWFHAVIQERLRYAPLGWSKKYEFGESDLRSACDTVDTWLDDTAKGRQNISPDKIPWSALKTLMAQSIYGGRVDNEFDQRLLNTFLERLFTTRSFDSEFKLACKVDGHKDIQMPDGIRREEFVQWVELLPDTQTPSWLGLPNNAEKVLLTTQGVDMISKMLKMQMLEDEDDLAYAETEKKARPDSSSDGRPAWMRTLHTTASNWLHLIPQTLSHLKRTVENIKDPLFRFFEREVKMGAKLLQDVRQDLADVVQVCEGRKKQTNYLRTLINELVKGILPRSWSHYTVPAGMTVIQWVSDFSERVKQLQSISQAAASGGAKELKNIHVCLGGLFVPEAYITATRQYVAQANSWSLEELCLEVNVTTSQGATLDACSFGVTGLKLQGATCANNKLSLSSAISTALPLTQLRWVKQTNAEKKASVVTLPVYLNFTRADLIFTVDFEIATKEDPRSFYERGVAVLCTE
Description: Microtubule surface gliding assay, dynein. The experiment is classed as biochemical. Particulars: for dynein-dependent microtubule movement (gliding velocity): 100 μM; for IC50: dynein-dependent microtubule gliding in vitro, read-out: IC50 of microtubule gliding inhibition. The procedure:
To more directly examine whether cytoplasmic dynein is the direct target of the ciliobrevins, we evaluated their effects on dynein-dependent microtubule gliding in vitro. Cytoplasmic dynein was purified from bovine brain tissue, adsorbed onto glass slides, and then incubated with fluorescently labeled microtubules and ATP in the presence or absence of these compounds. We then imaged and quantified the resulting microtubule gliding velocities by epifluorescence microscopy.
Cytoplasmic dynein was purified from bovine brains as described by Bingham et al. [Methods Enzymol. 298, 171 (1998)]. K560, a 560-amino acid N-terminal fragment of human conventional kinesin (kinesin-1) with a C-terminal His-tag, was expressed in bacteria and purified as described by Woehlke et al., [Cell 90, 207 (1997)]. Motility assays were performed on a Zeiss Axiovert 200M wide-field microscope equipped with a Zeiss 100×/1.45 NA α-Plan-Fluar objective. Data were captured with an EM-CCD camera (iXon DU-897, Andor Technology) with a 0.3-second exposure time and frame rate of 0.5 second^−1. Microtubule gliding assays were performed as described by Kapoor and Mitchison [Proc. Natl. Acad. Sci. U.S.A. 96, 9106 (1999)] with some modifications. An approximately 6 μL flow chamber was filled with motor protein (100 μg/mL dynein or 50 μg/mL K560) in motor dilution buffer (80 mM Pipes, 1 mM EGTA, 2 mM MgCl2, 2 mM DTT, 50 μM ATP, pH 6.8 with KOH). After a 2-minute incubation, excess protein was washed out with […] of PEM80 buffer (80 mM Pipes, 1 mM EGTA, 2 mM MgCl2, pH 6.8 with KOH) and the surface was blocked against non-specific microtubule binding by filling the chamber with blocking protein (0.5 mg/mL α-casein for dynein experiments and 1 mg/mL BSA for K560 experiments) in motor dilution buffer. After 2 minutes the chamber was perfused with 18 μL of reaction mix (PEM80, 40 mM KCl, blocking protein [1 mg/mL a-casein for dynein experiments; 1 mg/mL BSA for K560 experiments], 2 mM MgATP, 20 μM taxol, 0.1 μM rhodamine-labeled microtubules, oxygen depletion system [4 mM DTT, 2 mM glucose, 40 μg/mL glucose oxidase, 35 μg/mL catalase], 2.5% DMSO, and test compounds as appropriate). The flow chamber was then sealed with valap. After allowing the microtubules to bind to the surface for 5 minutes, the gliding microtubules were visualized by time-lapse fluorescence microscopy. Velocities were measured by kymography using Metamorph software (Molecular Devices), and the velocity for each microtubule was determined from the total distance during the time observed.
For washout experiments, the chamber was left unsealed after the initial reaction mix containing inhibitor was added. Microtubules were allowed to bind to the surface for 5 minutes, and then a time-lapse movie was acquired. The inhibitor was then washed out of the chamber by flowing in 20 μL of fresh reaction mix (PEM80, 40 mM KCl, 1 mg/mL α-casein, 2 mM MgATP, 20 μM taxol, oxygen depletion system, and 2.5% DMSO) without additional microtubules or inhibitor. The chamber was sealed, and additional time-lapse movies were acquired.

For experiment [3], the system named is primary cilia of Shh-EGFP cells. Description: Quantitative assessment of ciliogenesis (Arl13b staining, cilia size). The following applies: 24 hours. The class given is cell-based.

For the compound `N#C/C(C(=O)c1ccccc1)=C1\NC(=O)c2ccccc2N1` [Example 16, 3-oxo-2-(4-oxo-3,4-dihydroquinazolin-2(1H)-ylidene)-3-phenylpropanenitrile], in experiment [1], the IC50 was found to be 23 µM. Besides, in the experiment with Xenopus melanophores (concentrations up to 40 μM), the melanosome aggregation entry is reported as “no discernible effect”. Further, the “dynein-dependent microtubule movement (gliding velocity)” value (“dynein-dependent microtubule movement” below) in experiment [2] is “minimal effects”. Also, in experiment [3], the “cilia size in response to increasing concentration (FIG. 1)” value is listed as “no decrease in cilia size”.

Turning to `N#C/C(C(=O)c1ccc(Cl)cc1Cl)=C1\NC(=O)c2ccccc2N1` [Example 1, 3-(2,4-dichlorophenyl)-3-oxo-2-(4-oxo-3,4-dihydroquinazolin-2(1H)-ylidene)propanenitrile], in experiment [1], the IC50 is 9.9 µM. For the same compound, in experiment [2], the “dynein-dependent microtubule movement” value is given as “at least five-fold” and the 50% inhibitory concentration (IC50) is 30 µM. In addition, the “cilia size in response to increasing concentration (FIG. 1)” value in experiment [3] was “dose-dependent decrease in cilia size”.

In the case of `N#C/C(C(=O)c1ccc(Cl)cc1Cl)=C1\NC(=O)c2ccc(Cl)cc2N1` [Example 31, 2-(7-chloro-4-oxo-3,4-dihydroquinazolin-2(1H)-ylidene)-3-(2,4-dichlorophenyl)-3-oxo-propanenitrile], in experiment [1], the concentration for half-maximal inhibition (IC50) is 15 µM. The melanosome aggregation entry in the experiment with Xenopus melanophores (10 μM dose) is “significantly inhibited melanosome aggregation”. The “reversibility of effect on melanosome aggregation (washout)” value in the experiment with Xenopus melanophores (washout into medium containing melatonin alone) is “completely reversible”. Besides, in experiment [2], the “dynein-dependent microtubule movement” value is reported as “at least five-fold” and the IC50 is 40 µM.

`N#C/C(C(=O)c1ccc(Cl)cc1)=C1\NC(=O)c2ccccc2N1` [Example 2, 3-(4-chlorophenyl)-3-oxo-2-(4-oxo-3,4-dihydroquinazolin-2(1H)-ylidene)propanenitrile]: the half-inhibitory concentration (IC50) in experiment [1] amounted to 5.2 µM. In addition, in experiment [2], the “dynein-dependent microtubule movement” value is given as “minimal effects”.

(Values after patent US9145376B2, “Quinazolinone inhibitors of dynein” (The Rockefeller University, priority 2011, dated 2015).)
